According to patent US20240246946A1, “MODULATORS OF TREX1” (Constellation Pharmaceuticals, Inc., priority 2021, published 2024):

Tests used:
full length human TREX1 = target: T1, full length human TREX1 (Homo sapiens, UniProt Q9NSU2); assay: hTREX1 Biochemical Assay (fluorescence, dsDNA substrate degradation); conditions: biochemical, read-out: hTREX1 IC50
T1 construct: N-terminally His-Tev tagged full length human TREX1; made in house; host or cells: E. coli
T1 sequence (Q9NSU2 1-314): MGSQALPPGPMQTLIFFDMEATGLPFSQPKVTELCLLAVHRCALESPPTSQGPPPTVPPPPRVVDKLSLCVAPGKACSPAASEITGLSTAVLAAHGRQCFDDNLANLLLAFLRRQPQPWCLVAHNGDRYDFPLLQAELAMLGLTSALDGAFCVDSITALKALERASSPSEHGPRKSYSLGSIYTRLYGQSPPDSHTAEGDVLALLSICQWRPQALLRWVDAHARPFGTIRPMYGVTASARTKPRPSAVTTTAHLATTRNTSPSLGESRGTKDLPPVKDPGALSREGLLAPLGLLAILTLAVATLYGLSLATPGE
Method in brief: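 Fluorescence rises as enzyme degrades a quenched TEX615-labelled dsDNA substrate (60 nM) in 50 mM Tris, 150 mM NaCl, 5 mM MgCl2, pH 7.4. Full-length His-Tev-tagged human TREX1, 4 pM, sits with compound 4 hours at 25° C before substrate; reaction 18 hours, stopped with EDTA.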

full length mouse TREX1 = target: T2, full length mouse TREX1 (Mus musculus, UniProt Q91XB0); assay: mTREX1 Biochemical Assay (fluorescence, dsDNA substrate degradation); conditions: biochemical, read-out: mTREX1 IC50
T2 construct: N-terminally His-Tev tagged full length mouse TREX1; made in house; host or cells: E. coli
T2 sequence (Q91XB0 1-314): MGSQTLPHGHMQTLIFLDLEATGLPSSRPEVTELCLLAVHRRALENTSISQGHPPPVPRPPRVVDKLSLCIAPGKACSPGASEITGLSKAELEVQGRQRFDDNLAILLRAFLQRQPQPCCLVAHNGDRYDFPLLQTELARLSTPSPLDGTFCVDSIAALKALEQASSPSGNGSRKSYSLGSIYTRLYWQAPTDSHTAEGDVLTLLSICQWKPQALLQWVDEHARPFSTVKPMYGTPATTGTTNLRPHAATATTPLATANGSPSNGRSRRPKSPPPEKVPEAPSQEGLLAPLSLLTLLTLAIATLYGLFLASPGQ
Method in brief: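 Reaction run 18 h at 25° C. with 60 nM TEX615/quencher-labelled dsDNA and 6 pM mouse TREX1 in Tris buffer (pH 7.4, 5 mM MgCl2, 1.0% DMSO), enzyme having sat 4 h with compound across 10 concentrations. EDTA quench; substrate degradation measured as fluorescence increase.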

[1] = target: T3, human TREX2 (residues M44-A279) (Homo sapiens, UniProt Q9BQ50); assay: hTREX2 Biochemical Assay (fluorescence, dsDNA substrate degradation); conditions: biochemical selectivity for hTREX1 vs hTREX2
T3 construct: human TREX2 (residues M44-A279, expressed in E. coli); made in house; host or cells: E. coli
T3 sequence (Q9BQ50 44-279 isoform Q9BQ50-1): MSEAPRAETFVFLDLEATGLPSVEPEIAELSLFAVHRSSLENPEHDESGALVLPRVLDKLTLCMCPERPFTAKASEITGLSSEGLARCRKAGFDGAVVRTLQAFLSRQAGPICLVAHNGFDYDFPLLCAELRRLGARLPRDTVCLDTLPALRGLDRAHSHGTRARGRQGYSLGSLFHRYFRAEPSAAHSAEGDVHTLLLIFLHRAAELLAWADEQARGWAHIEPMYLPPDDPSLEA
Experimental: Degradation of the dsDNA liberates free fluorophore to produce a fluorescent signal. Specifically, 7.5 μL of N-terminally His-Tev tagged human TREX2 (residues M44-A279, expressed in E. coli and purified in house) in reaction buffer (50 mM Tris, 150 mM NaCl, 2 mM DTT, 0.1 mg/mL BSA, 0.01% (w/v) Tween-20, 5 mM MgCl2, pH 7.4) was added to a 384-well Black ProxiPlate Plus (PerkinElmer) which already contained compound (150 nL) at varying concentrations as a 10 point dose-response in DMSO. The plate was incubated at 25° C. for 4 hours. Reactions were initiated by adding 7.5 μL of dsDNA substrate (Strand A: 5′ TEX615/GCT AGG CAG 3′; Strand B: 5′ CTG CCT AGC/IAbRQSp (IDT)) in reaction buffer. Final concentrations were 50 pM TREX2, 60 nM dsDNA substrate in reaction buffer with 1.0% DMSO (v/v). After 18 hours at 25° C., reactions were quenched by the addition of 2 μL of 500 mM EDTA. Final concentrations in the quenched reaction mixture were 44 pM TREX2, 53 nM DNA and 59 mM EDTA in a volume of 17 μL. After a 5-minute incubation at room temperature, plates were read in an EnVision plate reader (PerkinElmer) measuring fluorescence at 615 nm following excitation w/570 nm light.

Compound	IC50 (full length human TREX1)	IC50 (full length mouse TREX1)	hTREX1 vs hTREX2 selectivity [1]
CCn1cc(C(c2cc(F)ccc2Cl)C(C)c2nc(C(=O)Nc3cnoc3)c(O)c(=O)n2C)cn1 (single isomer, unassigned) [Example 60 D2E1]	> 10 nM	> 10 nM	A (A = <25 fold selective for hTREX1)
CCn1cc(C(c2cc(F)ccc2Cl)C(C)c2nc(C(=O)Nc3cnoc3)c(O)c(=O)n2C)cn1 (single isomer, unassigned) [Example 60 D2E2]	> 10 nM	> 10 nM	A (A = <25 fold selective for hTREX1)
Cc1cc(C(c2ccccc2C#N)C(C)c2nc(C(=O)Nc3cnoc3)c(O)c(=O)n2C)n(C)n1 (single isomer, unassigned) [Example 63 D1E2]	1 to 10 nM	> 10 nM	C (C = >50 fold selective for hTREX1)
Cc1cn(C)nc1C(c1ccccc1C#N)C(C)c1nc(C(=O)Nc2cnoc2)c(O)c(=O)n1C (single isomer, unassigned) [Example 64 D2E1]	< 1 nM	1 to 10 nM	C (C = >50 fold selective for hTREX1)
CCn1ncc(C(c2ccc(F)cc2C#N)C(C)c2nc(C(=O)Nc3cnoc3)c(O)c(=O)n2C)c1C (single isomer, unassigned) [Example 65 D2E1]	1 to 10 nM	> 10 nM	C (C = >50 fold selective for hTREX1)
CC(c1nc(C(=O)Nc2cnoc2)c(O)c(=O)n1C)C(c1cnccn1)c1ccccc1C#N (single isomer, unassigned) [Example 66 D1E1]	< 1 nM	< 1 nM	B (B = 25 to 50-fold selective for hTREX1)
CCn1ncc(C(c2ccccc2C#N)C(C)c2nc(C(=O)Nc3cnoc3)c(O)c(=O)n2C)c1C (single isomer, unassigned) [Example 68 D2E1]	< 1 nM	> 10 nM	B (B = 25 to 50-fold selective for hTREX1)
COCCn1ncc(C(c2ccccc2C#N)C(C)c2nc(C(=O)Nc3cnoc3)c(O)c(=O)n2C)c1C (single isomer, unassigned) [Example 69 D2E2]	1 to 10 nM	> 10 nM	B (B = 25 to 50-fold selective for hTREX1)
COCCn1cc(C(c2cc(F)c(F)cc2Cl)C(C)c2nc(C(=O)Nc3cnoc3)c(O)c(=O)n2C)cn1 (single isomer, unassigned) [Example 73 D1E1]	< 1 nM	1 to 10 nM	C (C = >50 fold selective for hTREX1)
CC(c1nc(C(=O)Nc2cnoc2)c(O)c(=O)n1C)C(c1cnn(C)c1)c1ccccc1Cl (single isomer, unassigned) [Example 77 D2E2]	> 10 nM	> 10 nM	A (A = <25 fold selective for hTREX1)
Cc1nn(C)c(C)c1C(c1ccccc1C#N)C(C)c1nc(C(=O)Nc2cnoc2)c(O)c(=O)n1C (single isomer, unassigned) [Example 78 D1E2]	> 10 nM	> 10 nM	A (A = <25 fold selective for hTREX1)
CC(c1nc(C(=O)Nc2cnoc2)c(O)c(=O)n1C)C(c1nnn(C)n1)c1ccccc1C#N (single isomer, unassigned) [Example 79 D1E1]	> 10 nM	> 10 nM	A (A = <25 fold selective for hTREX1)
CC(c1nc(C(=O)Nc2cnoc2)c(O)c(=O)n1C)C(c1nnn(C)n1)c1ccccc1C#N (single isomer, unassigned) [Example 79 D2E1]	1 to 10 nM	> 10 nM	A (A = <25 fold selective for hTREX1)
CC(c1nc(C(=O)Nc2cnoc2)c(O)c(=O)n1C)C(c1nnn(C)n1)c1ccccc1C#N (single isomer, unassigned) [Example 79 D2E2]	> 10 nM	> 10 nM	A (A = <25 fold selective for hTREX1)
CC(c1nc(C(=O)Nc2cnoc2)c(O)c(=O)n1C)C(c1cnn(C)c1)c1ccc(O)cc1C#N (single isomer, unassigned) [Example 80 D1E2]	> 10 nM	> 10 nM	C (C = >50 fold selective for hTREX1)
CC(c1nc(C(=O)Nc2cnoc2)c(O)c(=O)n1C)C(c1cnn(C)c1)c1ccc(O)cc1C#N (single isomer, unassigned) [Example 80 D2E2]	1 to 10 nM	> 10 nM	B (B = 25 to 50-fold selective for hTREX1)
Cc1ncc(C(c2ccccc2C#N)C(C)c2nc(C(=O)Nc3cnoc3)c(O)c(=O)n2C)nc1C (single isomer, unassigned) [Example 81 D1E1]	> 10 nM	> 10 nM	A (A = <25 fold selective for hTREX1)
Cc1ncc(C(c2ccccc2C#N)C(C)c2nc(C(=O)Nc3cnoc3)c(O)c(=O)n2C)nc1C (single isomer, unassigned) [Example 81 D2E2]	> 10 nM	> 10 nM	B (B = 25 to 50-fold selective for hTREX1)
Cc1cnc(C)c(C(c2ccccc2C#N)C(C)c2nc(C(=O)Nc3cnoc3)c(O)c(=O)n2C)n1 (single isomer, unassigned) [Example 82 D1E2]	> 10 nM	> 10 nM	B (B = 25 to 50-fold selective for hTREX1)
Cc1cnc(C)c(C(c2ccccc2C#N)C(C)c2nc(C(=O)Nc3cnoc3)c(O)c(=O)n2C)n1 (single isomer, unassigned) [Example 82 D2E2]	> 10 nM	> 10 nM	B (B = 25 to 50-fold selective for hTREX1)
Cc1nccc(C(c2ccccc2C#N)C(C)c2nc(C(=O)Nc3cnoc3)c(O)c(=O)n2C)n1 (single isomer, unassigned) [Example 83 D1E2]	> 10 nM	> 10 nM	A (A = <25 fold selective for hTREX1)
Cc1nccc(C(c2ccccc2C#N)C(C)c2nc(C(=O)Nc3cnoc3)c(O)c(=O)n2C)n1 (single isomer, unassigned) [Example 83 D2E2]	> 10 nM	> 10 nM	A (A = <25 fold selective for hTREX1)
CCn1cc(C(c2ccccc2Cl)C(C)c2nc(C(=O)Nc3cnoc3)c(O)c(=O)n2C)cn1 (single isomer, unassigned) [Example 85 D2E2]	> 10 nM	> 10 nM	A (A = <25 fold selective for hTREX1)
CC(c1nc(C(=O)Nc2cnoc2)c(O)c(=O)n1C)C(c1cnn(CC(C)(C)O)c1)c1ccccc1Cl (single isomer, unassigned) [Example 86 D1E2]	1 to 10 nM	> 10 nM	A (A = <25 fold selective for hTREX1)
CC(c1nc(C(=O)Nc2cnoc2)c(O)c(=O)n1C)C(c1cnn(CC(C)(C)O)c1)c1ccccc1Cl (single isomer, unassigned) [Example 86 D2E1]	> 10 nM	> 10 nM	A (A = <25 fold selective for hTREX1)
